Assay results taken from ChEMBL document CHEMBL5528046, “Discovery of Novel PROTAC Degraders of p300/CBP as Potential Therapeutics for Hepatocellular Carcinoma” (J Med Chem, 2024).
Activity calls are given as the source filed them. The rule behind the calls is not given here.

Columns and labels:
[1] = target: T1, Protein cereblon/Histone acetyltransferase p300 (Homo sapiens, UniProt Q09472+Q96SW2); assay: PROTAC activity at CRBN/p300 in human SK-HEP1 cells assessed as induction of p300 protein degradation at 0.01 uM incubated for 24 hrs relative to control; assay type: cell-based
Target sequence in this assay (Q09472 2-2414 limits assumed): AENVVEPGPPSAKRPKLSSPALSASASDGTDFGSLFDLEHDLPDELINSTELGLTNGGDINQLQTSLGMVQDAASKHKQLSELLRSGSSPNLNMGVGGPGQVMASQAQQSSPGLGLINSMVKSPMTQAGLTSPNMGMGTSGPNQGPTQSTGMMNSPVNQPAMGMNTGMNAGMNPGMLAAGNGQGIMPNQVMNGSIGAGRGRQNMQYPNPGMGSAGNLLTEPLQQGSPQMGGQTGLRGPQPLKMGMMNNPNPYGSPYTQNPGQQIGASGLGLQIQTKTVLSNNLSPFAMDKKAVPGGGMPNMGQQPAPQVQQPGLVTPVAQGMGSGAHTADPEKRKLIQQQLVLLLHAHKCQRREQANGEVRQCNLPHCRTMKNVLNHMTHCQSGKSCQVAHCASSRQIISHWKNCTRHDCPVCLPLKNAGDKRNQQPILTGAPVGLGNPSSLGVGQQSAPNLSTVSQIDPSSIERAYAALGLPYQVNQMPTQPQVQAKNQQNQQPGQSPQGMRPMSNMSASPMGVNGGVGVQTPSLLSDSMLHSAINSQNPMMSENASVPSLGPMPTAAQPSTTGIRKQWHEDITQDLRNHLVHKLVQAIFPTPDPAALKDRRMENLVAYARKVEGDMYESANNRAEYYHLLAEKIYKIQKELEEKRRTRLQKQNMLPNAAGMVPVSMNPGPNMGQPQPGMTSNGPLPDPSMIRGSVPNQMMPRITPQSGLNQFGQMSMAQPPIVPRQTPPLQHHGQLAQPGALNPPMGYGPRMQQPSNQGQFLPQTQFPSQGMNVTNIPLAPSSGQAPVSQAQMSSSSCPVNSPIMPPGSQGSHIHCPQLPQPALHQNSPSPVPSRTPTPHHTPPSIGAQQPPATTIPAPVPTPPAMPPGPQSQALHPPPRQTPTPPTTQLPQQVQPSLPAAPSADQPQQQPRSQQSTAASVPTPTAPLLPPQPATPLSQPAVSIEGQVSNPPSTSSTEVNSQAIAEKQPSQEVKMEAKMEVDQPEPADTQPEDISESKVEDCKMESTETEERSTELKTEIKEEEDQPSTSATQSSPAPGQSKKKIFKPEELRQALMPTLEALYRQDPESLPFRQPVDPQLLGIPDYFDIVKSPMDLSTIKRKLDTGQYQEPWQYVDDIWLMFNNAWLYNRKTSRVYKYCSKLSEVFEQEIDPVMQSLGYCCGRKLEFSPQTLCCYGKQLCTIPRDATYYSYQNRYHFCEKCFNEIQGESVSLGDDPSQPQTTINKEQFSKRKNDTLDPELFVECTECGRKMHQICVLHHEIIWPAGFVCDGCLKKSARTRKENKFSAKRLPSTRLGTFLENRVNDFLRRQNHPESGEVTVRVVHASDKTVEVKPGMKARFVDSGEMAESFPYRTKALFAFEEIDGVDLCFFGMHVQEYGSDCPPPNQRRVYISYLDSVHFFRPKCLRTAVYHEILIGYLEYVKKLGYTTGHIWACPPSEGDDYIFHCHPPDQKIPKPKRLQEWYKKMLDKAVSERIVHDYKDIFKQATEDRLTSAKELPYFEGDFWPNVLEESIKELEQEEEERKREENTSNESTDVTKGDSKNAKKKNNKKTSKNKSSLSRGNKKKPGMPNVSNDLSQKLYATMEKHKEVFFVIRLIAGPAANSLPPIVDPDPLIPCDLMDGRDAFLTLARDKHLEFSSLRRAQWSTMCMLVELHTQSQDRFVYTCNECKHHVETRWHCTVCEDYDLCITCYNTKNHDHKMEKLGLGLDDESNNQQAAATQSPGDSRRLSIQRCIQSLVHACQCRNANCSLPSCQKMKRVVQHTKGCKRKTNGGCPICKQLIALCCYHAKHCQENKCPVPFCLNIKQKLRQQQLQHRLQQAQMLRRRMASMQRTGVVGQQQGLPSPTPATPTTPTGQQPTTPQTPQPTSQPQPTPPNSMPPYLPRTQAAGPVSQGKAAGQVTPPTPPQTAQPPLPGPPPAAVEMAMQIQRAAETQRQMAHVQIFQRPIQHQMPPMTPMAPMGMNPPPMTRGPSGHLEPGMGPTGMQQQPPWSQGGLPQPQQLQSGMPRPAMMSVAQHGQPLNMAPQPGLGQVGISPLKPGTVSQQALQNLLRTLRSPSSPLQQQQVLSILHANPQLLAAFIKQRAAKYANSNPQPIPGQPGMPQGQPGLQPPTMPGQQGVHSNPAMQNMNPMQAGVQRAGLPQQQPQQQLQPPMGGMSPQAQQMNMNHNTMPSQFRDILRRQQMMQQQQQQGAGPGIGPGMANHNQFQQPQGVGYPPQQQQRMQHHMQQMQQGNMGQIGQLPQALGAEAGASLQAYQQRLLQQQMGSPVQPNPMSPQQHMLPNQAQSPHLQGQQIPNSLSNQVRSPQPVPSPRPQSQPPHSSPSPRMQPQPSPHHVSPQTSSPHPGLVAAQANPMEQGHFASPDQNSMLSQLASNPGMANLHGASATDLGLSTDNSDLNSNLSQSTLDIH
Target sequence in this assay (Q96SW2 whole entry partner): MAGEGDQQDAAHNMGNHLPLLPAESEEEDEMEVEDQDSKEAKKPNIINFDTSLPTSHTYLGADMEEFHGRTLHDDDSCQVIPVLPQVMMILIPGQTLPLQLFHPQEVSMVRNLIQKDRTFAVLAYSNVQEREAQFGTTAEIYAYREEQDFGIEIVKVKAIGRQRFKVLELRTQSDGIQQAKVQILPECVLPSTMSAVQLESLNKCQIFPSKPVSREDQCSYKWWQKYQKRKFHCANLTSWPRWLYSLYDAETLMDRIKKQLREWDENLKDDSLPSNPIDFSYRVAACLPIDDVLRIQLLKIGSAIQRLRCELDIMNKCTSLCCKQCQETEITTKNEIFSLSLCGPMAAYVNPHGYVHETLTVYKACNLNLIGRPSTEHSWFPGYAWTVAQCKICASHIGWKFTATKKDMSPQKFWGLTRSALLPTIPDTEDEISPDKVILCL

[2] = target: T1, Protein cereblon/Histone acetyltransferase p300; assay: PROTAC activity at CRBN/p300 in human SK-HEP1 cells assessed as induction of p300 protein degradation at 0.1 uM incubated for 24 hrs relative to control; assay type: cell-based
Target sequence in this assay (Q09472 2-2414 limits assumed): as the sequence (Q09472 2-2414 limits assumed) above
Target sequence in this assay (Q96SW2 whole entry partner): as the sequence (Q96SW2 whole entry partner) above

[3] = target: T1, Protein cereblon/Histone acetyltransferase p300; assay: PROTAC activity at CRBN/p300 in human SK-HEP1 cells assessed as induction of p300 protein degradation at 1 uM incubated for 24 hrs relative to control; assay type: cell-based
Target sequence in this assay (Q09472 2-2414 limits assumed): as the sequence (Q09472 2-2414 limits assumed) above
Target sequence in this assay (Q96SW2 whole entry partner): as the sequence (Q96SW2 whole entry partner) above

[4] = target: T1, Protein cereblon/Histone acetyltransferase p300; assay: PROTAC activity at CRBN/p300 in human SK-HEP1 cells assessed as induction of p300 protein degradation incubated for 24 hrs by immunoblotting analysis; assay type: cell-based
[5] = target: T1, Protein cereblon/Histone acetyltransferase p300; assay: PROTAC activity at CRBN/p300 in human SK-HEP1 cells assessed as induction of p300 protein degradation by measuring residual activity at 10 nM incubated for 24 hrs by immunoblotting analysis (reference value: 100%); assay type: cell-based
Target sequence in this assay (Q09472 2-2414 limits assumed): as the sequence (Q09472 2-2414 limits assumed) above
Target sequence in this assay (Q96SW2 whole entry partner): as the sequence (Q96SW2 whole entry partner) above

[6] = target: T1, Protein cereblon/Histone acetyltransferase p300; assay: PROTAC activity at CRBN/p300 in human SK-HEP1 cells assessed as induction of p300 protein degradation by measuring residual activity at 100 nM incubated for 24 hrs by immunoblotting analysis (reference value: 100%); assay type: cell-based
Target sequence in this assay (Q09472 2-2414 limits assumed): as the sequence (Q09472 2-2414 limits assumed) above
Target sequence in this assay (Q96SW2 whole entry partner): as the sequence (Q96SW2 whole entry partner) above

[7] = target: T1, Protein cereblon/Histone acetyltransferase p300; assay: PROTAC activity at CRBN/p300 in human SK-HEP1 cells assessed as induction of p300 protein degradation by measuring residual activity at 250 nM incubated for 24 hrs by immunoblotting analysis (reference value: 100%); assay type: cell-based
Target sequence in this assay (Q09472 2-2414 limits assumed): as the sequence (Q09472 2-2414 limits assumed) above
Target sequence in this assay (Q96SW2 whole entry partner): as the sequence (Q96SW2 whole entry partner) above

[8] = target: T1, Protein cereblon/Histone acetyltransferase p300; assay: PROTAC activity at CRBN/p300 in human SK-HEP1 cells assessed as induction of p300 protein degradation by measuring residual activity at 1 uM incubated for 0.5 hrs by immunoblotting analysis (reference value: 100%); assay type: cell-based
[9] = target: T1, Protein cereblon/Histone acetyltransferase p300; assay: PROTAC activity at CRBN/p300 in human SK-HEP1 cells assessed as induction of p300 protein degradation by measuring residual activity at 1 uM incubated for 1 hrs by immunoblotting analysis (reference value: 100%); assay type: cell-based
[10] = target: T1, Protein cereblon/Histone acetyltransferase p300; assay: PROTAC activity at CRBN/p300 in human SK-HEP1 cells assessed as induction of p300 protein degradation by measuring residual activity at 1 uM incubated for 12 hrs by immunoblotting analysis (reference value: 100%); assay type: cell-based
[11] = target: T1, Protein cereblon/Histone acetyltransferase p300; assay: PROTAC activity at CRBN/p300 in human SK-HEP1 cells assessed as induction of p300 protein degradation by measuring residual activity at 2 uM incubated for 24 hrs by immunoblotting analysis (reference value: 100%); assay type: cell-based
[12] = target: T2, Protein cereblon/CREB-binding protein (Homo sapiens) (UniProt Q92793+Q96SW2); assay: PROTAC activity at CRBN/CBP in human SK-HEP1 cells assessed as induction of […] protein degradation by measuring residual activity at 2 uM incubated for 24 hrs by immunoblotting analysis (reference value: 100%); assay type: cell-based
[13] = target: T2, Protein cereblon/CREB-binding protein (Homo sapiens); assay: PROTAC activity at CRBN/CBP in human SK-HEP1 cells assessed as induction of […] protein degradation by measuring residual activity incubated for 24 hrs by immunoblotting analysis; assay type: cell-based; details: dose 0.5-2 µM
[14] = target: T1, Protein cereblon/Histone acetyltransferase p300; assay: PROTAC activity at CRBN/p300 in human SK-HEP1 cells assessed as induction of p300 degradation by measuring residual activity at 0.5 uM pretreated with MG-132 followed by compound addition by immunoblotting analysis relative to control; assay type: cell-based
[15] = target: T1, Protein cereblon/Histone acetyltransferase p300; assay: PROTAC activity at CRBN/p300 in human SK-HEP1 cells assessed as induction of p300 degradation by measuring residual activity at 0.5 uM pretreated with MLN4924 at 0.1 uM followed by compound addition by immunoblotting analysis relative to control; assay type: cell-based
[16] = target: T1, Protein cereblon/Histone acetyltransferase p300; assay: PROTAC activity at CRBN/p300 in human SK-HEP1 cells with siRNA mediated CRBN knockdown assessed as induction of p300 degradation by measuring residual activity at 1 uM by immunoblotting analysis relative to control; assay type: cell-based
[17] = tested on: SK-HEP1; assay: Downregulation of POSTN mRNA expression in human SK-HEP1 cells at 1 uM incubated for 24 hrs by RT-qPCR analysis; assay type: functional, cell-based
[18] = tested on: SK-HEP1; assay: Downregulation of IGFBP3 mRNA expression in human SK-HEP1 cells at 1 uM incubated for 24 hrs by RT-qPCR analysis; assay type: functional, cell-based
[19] = tested on: SK-HEP1; assay: Antiproliferative activity against human SK-HEP1 cells assessed as inhibition of cell growth incubated for 5 days by CCK-8 assay; assay type: functional, cell-based; details: SK-HEP1, 120 h
[20] = Antiproliferative activity against human JHH7 cells assessed as inhibition of cell growth incubated for 5 days by CCK-8 assay; assay type: functional, cell-based; details: JHH7, 120 h
[21] = tested on: SK-HEP1; assay: Inhibition of colony formation in human SK-HEP1 cells incubated for 14 days with compound containing media replacement for every 3 days by crystal violet staining based assay; assay type: functional, cell-based; details: dose 0.5-2 µM, time 14.0 day
[22] = tested on: SK-HEP1; assay: Induction of cell cycle arrest at G2/M phase in human SK-HEP1 cells incubated for 48 hrs by RNase/PI staining based flow cytometry analysis; assay type: functional; details: dose 0.5-2 µM
[23] = tested on: SK-HEP1; assay: Induction of cell cycle arrest at G2/M phase in human SK-HEP1 cells assessed as SKP2 protein level at 0.5 uM incubated for 24 hrs by immunoblotting analysis (reference value: 100%); assay type: functional
[24] = tested on: SK-HEP1; assay: Induction of cell cycle arrest at G2/M phase in human SK-HEP1 cells assessed as SKP2 protein level at 1 uM incubated for 24 hrs by immunoblotting analysis (reference value: 100%); assay type: functional
[25] = tested on: SK-HEP1; assay: Induction of cell cycle arrest at G2/M phase in human SK-HEP1 cells assessed as SKP2 protein level at 2 uM incubated for 24 hrs by immunoblotting analysis (reference value: 100%); assay type: functional
[26] = tested on: SK-HEP1; assay: Induction of cell cycle arrest at G2/M phase in human SK-HEP1 cells assessed as CDK6 protein level at 0.5 uM incubated for 24 hrs by immunoblotting analysis (reference value: 100%); assay type: functional
[27] = tested on: SK-HEP1; assay: Induction of cell cycle arrest at G2/M phase in human SK-HEP1 cells assessed as reduction in CDK6 protein level at 2 uM incubated for 24 hrs by immunoblotting analysis (reference value: 100%); assay type: functional; set-up: scale not given: the % may be the effect or the level left
[28] = tested on: Mus musculus; assay: In vivo PROTAC activity at CRBN/p300 in nude mouse xenografted with human SK-HEP1 cells assessed as reduction in p300 protein level in tumor at 50 mg/kg, ip measured after 24 hrs by immunoblotting analysis; assay type: functional, organism-based
[29] = target: T2, Protein cereblon/CREB-binding protein (Homo sapiens); assay: In vivo PROTAC activity at CRBN/CBP in nude mouse xenografted with human SK-HEP1 cells assessed as reduction in CBP protein level in tumor at 50 mg/kg, ip measured after 24 hrs by immunoblotting analysis; assay type: functional, organism-based
[30] = target: T1, Protein cereblon/Histone acetyltransferase p300; assay: PROTAC activity at CRBN/p300 in human SK-HEP1 cells assessed as increase in protein ubiquitination at 2 uM pretreated with MG132 at 1 uM followed by compound treatment and further incubated for 24 hrs by immunoblotting analysis (reference value: 100%); assay type: cell-based

Cc1noc(C)c1-c1ccc2c(c1)nc([C@@H]1CCCC(=O)N1c1ccc(F)c(F)c1)n2C1CCN(C2CN(c3ccc4c(c3)C(=O)N(C3CCC(=O)NC3=O)C4=O)C2)CC1 (stereo partly specified)
Activity [1]: 9% | Activity [2]: 27% | Activity [3]: 47% | Activity [4]: Dose-Dependent Effect | DC50 [4]: 0.093 µM | Activity [5]: 70% | Activity [6]: 61% | Activity [7]: 38% | Activity [8]: 100% | Activity [9]: 78% | Activity [10]: 58% | Activity [11]: 62% | Activity [12]: 89% | Activity [13]: Dose-Dependent Effect | Activity [14]: 93% | Activity [15]: 115% | Activity [16]: 78% | Activity [17]: Active | Activity [18]: Active | IC50 [19]: 0.733 µM | IC50 [20]: 0.447 µM | inhibition [21]: Dose-Dependent Effect | Activity [22]: Dose-Dependent Effect | Activity [23]: 117% | Activity [24]: 88% | Activity [25]: 60% | Activity [26]: 104% | Activity [27]: 87% | Activity [28]: Active | Activity [29]: Active | Activity [30]: 114%
